Laboratory results as given in US20230124862A1, “BISMUTH THIOL COMPOUNDS AND COMPOSITIONS AND METHODS OF TREATING MICROBIAL CO-INFECTIONS” (Microbion Corporation, priority 2020, published 2023).
≈ marks a conversion by molar mass, not a printed value. Where two headings read alike, the source gives them in different places.

Tests used:
S. aureus = test: Broth microdilution MIC (Example 11); format: cell-based, Staphylococcus aureus
M. avium = test: MIC testing of CF isolates; format: cell-based; settings: Mycobacterium avium
[1] = test system: B. cepcacia complex (not further speciated); test: microbe, parasite or virus in culture; format: cell-based, Burkholderia cepacia complex; settings: Burkholderia cepacia
Enterococcus spp. = test: Broth microdilution MIC (Example 11); format: cell-based, E. faecalis, E. faecium; settings: Enterococcus, VRE, enterococci incl. VRE; read-out: MIC values
[2] = test system: Anaerobes (Bacteroides fragilis, Clostridium difficile); test: Agar dilution MIC (Example 11); format: cell-based
Protocol: The susceptibility of anaerobic bacteria was determined by agar dilution using Brucella Agar (BD/BBL; Lot No. 5237692) supplemented with 5 μg/mL hemin (Sigma, St. Louis, Mo.; Lot No. 108K1088), 1 μg/mL Vitamin K1 and 5% (v/v) laked sheep blood (Cleveland Scientific, Bath, Ohio; Lot No. 322799).
Agar Dilution MIC Testing (Anaerobic Bacteria and Gonococci): MIC values for anaerobic bacteria were determined using a reference agar dilution method as described by CLSI (6). Organisms were grown at 35° C. in the Bactron II Anaerobic Chamber (Shel Lab, Cornelius, Oreg.) for approximately 48 hr prior to the assay. Drug dilutions and drug-supplemented agar plates were prepared manually per CLSI (6). The plates were allowed to stand at room temperature for 1 hr to allow the agar surface to dry and pre-reduced for approximately 1 hr in the anaerobe chamber prior to inoculation. Each isolate was suspended to the equivalent of a 0.5 McFarland standard in Brucella broth using a turbidity meter (Dade Behring MicroScan, West Sacramento, Calif.). Each bacterial cell suspension was then diluted 1:10 in Brucella broth and transferred to wells in a stainless steel replicator block which was used to inoculate the test plates. The prongs on the replicator deliver approximately 1-2 μl of inoculum to an agar surface. The resulting inoculum spots contained approximately 1×10^5 CFU/spot. After the inoculum dried, the inoculated drug-supplemented agar plates and no drug growth control plates were incubated at 35° C. for 42-48 hr in the anaerobe chamber. The MIC was read per CLSI guidelines (6).

[3] = test system: C. parapsilosis ATCC 22019; test: Antifungal broth microdilution (Example 13), QC organism; format: cell-based, Candida parapsilosis; settings: 24 hr, first of two values x/y (footnote b not given, presumably MIC2)
CYP = settings: liver microsome (CYP) and hepatocyte
[4] = test system: MucilAir fully differentiated human airway epithelium
physchem = format: physicochemical
[5] = humans
P. aeruginosa [6] = settings: control strain ATCC 27853; cited from earlier work
Enterobacteriaceae = test: Broth microdilution MIC (Example 11); format: cell-based, E. coli, K. pneumoniae, Enterobacter cloacae
[7] = test system: Burkholderia cepacia complex; format: cell-based, Burkholderia spp.; settings: initial MIC testing
Escherichia coli = test: Broth microdilution MIC (Example 12); format: cell-based
P. aeruginosa [8] = test: Broth microdilution MIC (Example 10); format: cell-based, Pseudomonas aeruginosa; settings: initial MIC testing

CC(S)C(C)S.[Bi] (stereo not drawn) [BisBDT, bismuth-2,3-butanedithiol]
MIC (S. aureus; S. aureus MMX 5373, MRSA, Lev^R Cip^R CC^R Ery^R Ox^R): ≤0.06 µg/mL
MIC (S. aureus; S. aureus MMX 6311, MRSA, Lev^R Cip^R CC^R Ery^R Ox^R): ≤0.06 µg/mL
MIC (S. aureus; S. aureus MMX 9204, MRSA, Lev^R Cip^R Ery^R Ox^R): ≤0.06 µg/mL
MIC (S. aureus; S. aureus MMX 9205, MRSA, Lev^R Cip^R CC^R Ery^R Ox^R): ≤0.06 µg/mL
MIC (S. aureus; Staphylococcus aureus, ATCC 29213 / MSSA): ≤ 0.06 µg/mL
MIC (M. avium; strain AMT G193-13): > 16 µg/mL
MIC (M. avium; strain MAC101): 1 µg/mL
MIC ([1]; strain BC 9): 0.5 µg/mL
MIC ([1]; strain PC 213): 1 µg/mL
MIC (Enterococcus spp.): 0.25 to 1 µg/mL
MIC ([2]; Bacteroides fragilis, ATCC25285, B. fragilis MMX 123 (ATCC 25285), QC, read-out: MIC): 1 µg/mL
MIC ([2]; Bacteroides fragilis, agar dilution, read-out: MIC values): 1 to 4 µg/mL
MIC ([2]; C. difficile MMX 5680 (NCTC 13336), ribotype 027, CC^1 MET^R, read-out: MIC): 2 µg/mL
MIC ([2]; C. difficile MMX 8272, ribotype 255, CC^1, read-out: MIC): 2 µg/mL
MIC ([2]; C. difficile MMX 8279, ribotype 005, CC^R, read-out: MIC): 2 µg/mL
MIC ([2]; C. difficile MMX 8281, ribotype 010, CC^R, read-out: MIC): 2 µg/mL
MIC 24 hr [3]: 1 µg/mL

C1C[S][Bi]([S]CC[S][Bi]2[S]CC[S]2)[S]1 [BisEDT, Bismuth-1,2-ethanedithiol]
effect on liver cell metabolism (inhibition or induction of standard substrates) (CYP): no significant effect
TEER ([4]; BisEDT in solution 0.001-30 μM, all time points): didn't show significant effect
TEER ([4]; solid, 1 μg/cm^2, 8, 24 and 48H): Loss of tissue integrity
TEER ([4]; solid, 1 μg/cm^2, 1 hour): no significant effect
TEER ([4]; solid, 0.033 and 0.33 μg/cm^2, all time points): No significant effect
TEER ([4]; solid, all tested doses, 1 hour exposure): no significant effect
solubility (physchem): < 5 µg/mL
well-tolerated topical concentration ([5]; 6 hours): up to 2500 μg/cm^2
tolerated topical concentration ([5]; over 21 days continuous exposure, normal and abraded skin): up to 75 μg/cm^2
Expected MIC: goal (acceptable range) (P. aeruginosa [6]): 1 to 2 µg/mL

C[C@@H](O)[C@H]1C(=O)N2C(C(=O)O)=C(S[C@@H]3CN[C@H](C(=O)N(C)C)C3)[C@H](C)[C@H]12 [MEM]
MIC (Enterobacteriaceae; E. cloacae (MMX 5981), NDM-1, LVX-R, MEM-R, CAZ-R, GEN-R): >64 µg/mL
MIC (Enterobacteriaceae; E. coli (MMX 102), QC): 0.03 µg/mL (≈ 0.0782 µM)
MIC (Enterobacteriaceae; E. coli (MMX 5980), NDM-1, LVX-R, MEM-R, CAZ-R, GEN-R): 32 µg/mL (≈ 83.4 µM)
MIC (Enterobacteriaceae; E. coli (MMX 8423), ESBL, LVX-R, CAZ-R, GEN-R): 0.03 µg/mL (≈ 0.0782 µM)
MIC (Enterobacteriaceae; E. coli (MMX 8424), ESBL, CAZ-R): 0.03 µg/mL (≈ 0.0782 µM)
MIC (Enterobacteriaceae; E. coli (MMX 8425), ESBL, LVX-R, CAZ-R, GEN-R): 0.015 µg/mL (≈ 0.0391 µM)
MIC (Enterobacteriaceae; K. pneumoniae (MMX 4622), KPC-2, MEM-R, CAZ-R): >64 µg/mL
MIC (Enterobacteriaceae; K. pneumoniae (MMX 4623), KPC-2, MEM-R, CAZ-R, GEN-R): >64 µg/mL
MIC (Enterobacteriaceae; K. pneumoniae (MMX 4653), KPC-3, LVX-R, MEM-R, CAZ-R): >64 µg/mL
MIC (Enterobacteriaceae; K. pneumoniae (MMX 4683), KPC-2, LVX-R, MEM-R, CAZ-R): 32 µg/mL (≈ 83.4 µM)
MIC (Enterobacteriaceae; K. pneumoniae (MMX 4684), ESBL, MEM-R): 8 µg/mL (≈ 20.9 µM)
MIC (Enterobacteriaceae; K. pneumoniae (MMX 4685), ESBL, LVX-R, MEM-R, CAZ-R): 4 µg/mL (≈ 10.4 µM)
MIC (Enterobacteriaceae; K. pneumoniae (MMX 4694), KPC-3, LVX-R, MEM-R, CAZ-R): 32 µg/mL (≈ 83.4 µM)
MIC (Enterobacteriaceae; K. pneumoniae (MMX 5979), NDM-1, LVX-R, MEM-R, CAZ-R, GEN-R): >64 µg/mL
MIC ([7]; B. cenocepacia isolate 0548 (CIP-R)): 4 µg/mL (≈ 10.4 µM)
MIC ([7]; B. cenocepacia isolate 0813 (CPI-I)): 2 µg/mL (≈ 5.22 µM)
MIC ([7]; B. cenocepacia isolate 1631): 4 µg/mL (≈ 10.4 µM)
MIC ([7]; B. cenocepacia isolate 1783): 4 µg/mL (≈ 10.4 µM)
MIC ([7]; B. cenocepacia isolate 8555): 4 µg/mL (≈ 10.4 µM)
MIC ([7]; B. cepacia isolate 0546): 4 µg/mL (≈ 10.4 µM)
MIC ([7]; B. cepacia isolate 0547): 2 µg/mL (≈ 5.22 µM)
MIC ([7]; B. cepacia isolate 1793): 4 µg/mL (≈ 10.4 µM)
MIC ([7]; B. cepacia isolate 1794): 4 µg/mL (≈ 10.4 µM)
MIC ([7]; B. cepacia isolate 9040): 4 µg/mL (≈ 10.4 µM)
MIC ([7]; B. multivorans isolate 1580 (CIP-R)): 2 µg/mL (≈ 5.22 µM)
MIC ([7]; B. multivorans isolate 1791): 4 µg/mL (≈ 10.4 µM)
MIC ([7]; B. multivorans isolate 1795 (MEM-I, CIP-R)): 8 µg/mL (≈ 20.9 µM)
MIC ([7]; B. multivorans isolate 5665 (CIP-I)): 2 µg/mL (≈ 5.22 µM)
MIC ([7]; B. multivorans isolate 8952 (CIP-I)): 2 µg/mL (≈ 5.22 µM)
MIC (Escherichia coli; E. coli ATCC 25922, ATCC QC organism (Table 102)): ≤0.008 µg/mL
MIC (Escherichia coli; E. coli ATCC 35218, ATCC QC organism (Table 102)): ≤0.008 µg/mL
MIC (Escherichia coli; E. coli ATCC 35218, ESBL): ≤0.008 µg/mL
MIC (Escherichia coli; E. coli ATCC BAA-2471, NDM): >8 µg/mL
MIC (Escherichia coli; E. coli CDC 114, ESBL/KPC): 2 µg/mL (≈ 5.22 µM)
MIC (Escherichia coli; E. coli CDC 118, ESBL/NDM): 0.06 µg/mL (≈ 0.156 µM)
MIC (Escherichia coli; E. coli CDC 435, NDM): >8 µg/mL
MIC (Escherichia coli; E. coli CDC 451, KPC): 1 µg/mL (≈ 2.61 µM)
MIC (Escherichia coli; E. coli CDC 503, ESBL/NDM): 8 µg/mL (≈ 20.9 µM)
MIC (Escherichia coli; E. coli MMX 5745, KPC): 2 µg/mL (≈ 5.22 µM)
MIC (Escherichia coli; E. coli MMX 5755, ESBL): 0.015 µg/mL (≈ 0.0391 µM)
MIC (Escherichia coli; E. coli MMX 5756, ESBL): ≤0.008 µg/mL
MIC (Escherichia coli; E. coli MMX 5758, ESBL): ≤0.008 µg/mL
MIC (P. aeruginosa [8]; P. aeruginosa isolate 103, QC strain): 1 µg/mL (≈ 2.61 µM)
MIC (P. aeruginosa [8]; P. aeruginosa isolate 1497 (TOB-R AMK-R, CIP-I, AZT-R, COL-R)): 0.06 µg/mL (≈ 0.156 µM)
MIC (P. aeruginosa [8]; P. aeruginosa isolate 1530 (TOB-R, AMK-R, CIP-R)): 0.5 µg/mL (≈ 1.3 µM)
MIC (P. aeruginosa [8]; P. aeruginosa isolate 1553 (TOB-R, AMK-R, CIP-R)): 0.5 µg/mL (≈ 1.3 µM)
MIC (P. aeruginosa [8]; P. aeruginosa isolate 6322 (MEM-R, TOB-R, AMK-R, CIP-R, AZT-R)): 16 µg/mL (≈ 41.7 µM)
MIC (P. aeruginosa [8]; P. aeruginosa isolate 6977 (MEM-I, TOB-R, CIP-R, AZT-I)): 4 µg/mL (≈ 10.4 µM)
MIC (P. aeruginosa [8]; P. aeruginosa isolate 7745 (MEM-R, CIP-R, AZT-R)): 16 µg/mL (≈ 41.7 µM)
MIC (P. aeruginosa [8]; P. aeruginosa isolate 7754 (MEM-R, TOB-R, CIP-R, AZT-I)): 32 µg/mL (≈ 83.4 µM)
MIC (P. aeruginosa [8]; P. aeruginosa isolate 7762 (MEM-I, CIP-I)): 4 µg/mL (≈ 10.4 µM)
MIC (P. aeruginosa [8]; P. aeruginosa isolate 7871 (MEM-R, AZT-I)): 8 µg/mL (≈ 20.9 µM)
MIC (P. aeruginosa [8]; P. aeruginosa isolate 7874): 1 µg/mL (≈ 2.61 µM)
MIC (P. aeruginosa [8]; P. aeruginosa isolate 7886 (MEM-R, CIP-R, AZT-R)): 32 µg/mL (≈ 83.4 µM)
MIC (P. aeruginosa [8]; P. aeruginosa isolate 8797 (MEM-R, TOB-R, AMK-R, CIP-R, AZT-R, COL-R)): 32 µg/mL (≈ 83.4 µM)
MIC (P. aeruginosa [8]; P. aeruginosa isolate 8798 (MEM-R, TOB-R, AMK-R, CIP-R, AZT-R, COL-R)): 64 µg/mL (≈ 167 µM)
MIC (P. aeruginosa [8]; P. aeruginosa isolate 9108 (CIP-R, AZT-I)): 0.5 µg/mL (≈ 1.3 µM)
